Test system: IL-2 production
Experiment: Inhibition of IL-2 production in PHA-activated Jurkat cells (ELISA)
Assay type: cell-based
Settings: Homo sapiens, PHA 2.5 μg/mL, IL-2 ELISA
Experimental: Jurkat cells were placed in a 96 well plate (0.5 million cells per well in 1% FBS medium) then a test compound of this invention was added at different concentrations. After 10 minutes, the cells were activated with PHA (final concentration 2.5 μg/mL) and incubated for 20 hours at 37° C. under CO2. The final volume was 200 μL. Following incubation, the cells were centrifuged and the supernatants collected and stored at −70° C. prior to assaying for IL-2 production. A commercial ELISA kit (IL-2 Eli-pair, Diaclone Research, Besancon, France) was used to detect production of IL-2, from which dose response curves were obtained. The IC50 value was calculated as the concentration at which 50% of maximum IL-2 production after stimulation was inhibited versus a non-stimulation control.

Row | Structure (SMILES) | IC50 (Jurkat, 20 h) [nM] | IC50 (20 hours) [nM]
1 | CC1=C(c2ccc(NC(=O)c3ccncc3F)cc2)CCCC1 [Compound 1, 3-Fluoro-N-[4-(2-methyl-cyclohex-1-enyl)-phenyl]-isonicotinamide] | 84 | –
2 | C=C(C)[C@@H]1CCC(C)=C(c2ccc(NC(=O)c3ccncc3C)cc2)C1 [Compound 2, 3-Methyl-N-[4-(2-methyl-5(R)-isopropenyl-cyclohex-1-enyl)-phenyl]-isonicotinamide] | 11 | –
3 | C=C(C)[C@H]1CCC(C)=C(c2ccc(NC(=O)c3ccncc3C)cc2)C1 [Compound 3, 3-Methyl-N-[4-(2-methyl-5(S)-isopropenyl-cyclohex-1-enyl)-phenyl]-isonicotinamide] | 9 | –
4 | C=C(C)[C@@H]1CCC(C)=C(c2ccc(NC(=O)c3ccncc3F)cc2)C1 [Compound 4, 3-Fluoro-N-[4-(2-methyl-5(R)-isopropenyl-cyclohex-1-enyl)-phenyl]-isonicotinamide] | 7 | –
5 | C=C(C)[C@H]1CCC(C)=C(c2ccc(NC(=O)c3ccncc3F)nc2)C1 [Compound 5] | 13.9 | –
6 | CC(=O)[C@@H]1CCC(C)=C(c2ccc(NC(=O)c3ccncc3C)cc2)C1 [Compound 6, 3-Methyl-N-[4-(2-methyl-5(R)-acetyl-cyclohex-1-enyl)-phenyl]-isonicotinamide] | 68 | –
7 | CCOC(=O)N1C=C(c2ccc(NC(=O)c3c(F)cccc3F)cc2)C(C)CC1 (stereo not drawn) [Compound 8, 5-[4-(2,6-difluoro-benzoylamino)-phenyl]-4-methyl-2,4-dihydro-2H-pyridine-1-carboxylic acid ethyl ester] | 95 | –
8 | CC1=C(c2ccc(NC(=O)c3ccncc3C)cc2)C[C@@H]([C@@](C)(O)CO)CC1 [Compound 9, N-(4-((S)-5-((R)-1,2-dihydroxypropan-2-yl)-2-methylcyclohex-1-enyl)phenyl)-3-methylisonicotinamide] | 748 | –
9 | CC1=C(c2ccc(NC(=O)c3c(F)cccc3F)cc2)CN(C)CC1 [Compound 10, N-(4-(1,4-dimethyl-1,2,5,6-tetrahydropyridin-3-yl)phenyl)-2,6-difluorobenzamide] | > 1000 | –
10 | CC1=C(c2ccc(NC(=O)c3c(F)cccc3F)cc2)CN(Cc2ccccc2)CC1 [Compound 11, N-(4-(1-benzyl-4-methyl-1,2,5,6-tetrahydropyridin-3-yl)phenyl)-2,6-difluorobenzamide] | > 1000 | –
11 | CCOC(=O)N1CCC(C)=C(c2ccc(NC(=O)c3c(F)cccc3F)cc2)C1 [Compound 12, Ethyl 3-(4-(2,6-difluorobenzamido)phenyl)-4-methyl-5,6-dihydropyridine-1(2H)-carboxylate] | 23 | –
12 | CC(C)=C(C)c1ccc(NC(=O)c2ccncc2F)cc1 [Compound 13, 3-Fluoro-N-(4-(3-methylbut-2-en-2-yl)phenyl)-isonicotinamide] | 382 | –
13 | CC(C)=C(c1ccccc1)c1ccc(NC(=O)c2ccncc2C)cc1 [Compound 14, 3-Methyl-N-(4-(2-methyl-1-phenylprop-1-enyl)phenyl)-isonicotinamide] | 159 | –
14 | CC1=C(c2ccc(NC(=O)c3c(F)cccc3F)cc2)CCN(C)C1 [Compound 15, N-(4-(1,5-Dimethyl-1,2,3,6-tetrahydropyridin-4-yl)phenyl)-2,6-difluorobenzamide] | – | > 1000
15 | CCOC(=O)N1CCC(c2ccc(NC(=O)c3c(F)cccc3F)cc2)=C(C)C1 [Compound 16, Ethyl 4-(4-(2,6-difluorobenzamido)phenyl)-3-methyl-5,6-dihydropyridine-1(2H)-carboxylate] | 24.6 | –
16 | CC1=C(c2ccc(NC(=O)c3c(F)cccc3F)cc2)CCNC1 [Compound 17, 2,6-Difluoro-N-(4-(5-methyl-1,2,3,6-tetrahydropyridin-4-yl)phenyl)benzamide] | – | > 1000
17 | O=C(Nc1ccc(C2=CCCCC2)cc1)c1ccncc1F [Compound 18, N-(4-Cyclohexenylphenyl)-3-fluoroisonicotinamide] | > 1000 | –
18 | CC1=C(c2ccc(NC(=O)c3c(F)cccc3F)cc2)CCN(Cc2ccccc2)C1 [Compound 19, N-(4-(1-benzyl-5-methyl-1,2,3,6-tetrahydropyridin-4-yl)phenyl)-2,6-difluorobenzamide] | – | 513
19 | O=C(Nc1ccc(C2=C(Cl)CCCC2)cc1)c1c(F)cccc1F [Compound 21, N-[4-(2-chloro-cyclohex-1-enyl)-phenyl]-2,6-difluoro-benzamide] | 23.2 | –
20 | O=C(Nc1ccc(C2=C(CO)CCCC2)cc1)c1c(F)cccc1F [Compound 22, N-[4-(2-hydroxymethyl-cyclohex-1-enyl)-phenyl]-2,6-difluoro-benzamide] | 721 | –
21 | O=C(Nc1ccc(C2=C(c3cnco3)CCCC2)cc1)c1c(F)cccc1F [Compound 23, N-[4-(2-oxazol-5-yl-cyclohex-1-enyl)-phenyl]-2,6-difluoro-benzamide] | 7.4 | –

Row | Structure (SMILES) | IC50 (Jurkat, 20 h) [nM] | IC50 (20 hours) [nM]
22 | O=C(Nc1ccc(C2=C(c3cnco3)CCCC2)cc1)c1ccncc1F [Compound 24, N-[4-(2-oxazol-5-yl-cyclohexen-1-yl)-phenyl]-3-fluoroisonicotinamide] | 68 | –
23 | CC1=C(c2ccc(NC(=O)c3c(F)cccc3F)cc2)CCCC1 [Compound 25, N-[4-(2-methyl-cyclohex-1-enyl)-phenyl]-2,6-difluoro-benzamide] | 7.2 | –
24 | CC1=C(c2ccc(NC(=O)c3ncncc3C)cc2)CCCC1 [Compound 26, 5-Methyl-pyrimidine-4-carboxylic acid [4-(2-methyl-cyclohex-1-enyl)-phenyl]-amide] | 165 | –
25 | CC1=C(c2ccc(NC(=O)c3cncnc3C)cc2)CCCC1 [Compound 27, 4-Methyl-pyrimidine-5-carboxylic acid [4-(2-methyl-cyclohex-1-enyl)-phenyl]-amide] | 38.9 | –
26 | CC1=C(c2ccc(NC(=O)c3scnc3Cl)cc2)CCCC1 [Compound 28, 4-Chloro-thiazole-5-carboxylic acid [4-(2-methyl-cyclohex-1-enyl)-phenyl]-amide] | 143 | –
27 | CCC1=C(c2ccc(NC(=O)c3c(F)cccc3F)cc2)CCCC1 [Compound 29, N-[4-(2-ethyl-cyclohex-1-enyl)-phenyl]-2,6-difluoro-benzamide] | 17.4 | –
28 | CCOC(=O)C1=C(c2ccc(NC(=O)c3c(F)cccc3F)cc2)CCC1 [Compound 30, 2-[4-(2,6-Difluoro-benzoylamino)phenyl]-cyclopent-1-enecarboxylic acid ethyl ester] | 300 | –
29 | O=C(Nc1ccc(C2=C(CO)CCC2)cc1)c1c(F)cccc1F [Compound 31, 2,6-Difluoro-N-[4-(2-hydroxymethyl-cyclopent-1-enyl)-phenyl]-benzamide] | > 1000 | –
30 | O=CC1=C(c2ccc(NC(=O)c3c(F)cccc3F)cc2)CCC1 [Compound 32, 2,6-Difluoro-N-[4-(2-formyl-cyclopent-1-enyl)-phenyl]-benzamide] | > 1000 | –
31 | C=CC1=C(c2ccc(NC(=O)c3c(F)cccc3F)cc2)CCC1 [Compound 33, 2,6-Difluoro-N-[4-(2-vinyl-cyclopent-1-enyl)-phenyl]-benzamide] | 97.1 | –
32 | O=C(Nc1ccc(C2=C(c3cnco3)CCC2)cc1)c1c(F)cccc1F [Compound 34, 2,6-Difluoro-N-[4-(2-oxazol-5-yl-cyclopent-1-enyl)-phenyl]-benzamide] | 20.5 | –
33 | COC(=O)C1=C(c2ccc(NC(=O)c3c(F)cccc3F)cc2)CCCCC1 [Compound 35, 2,6-Difluoro-N-[4-(2-methoxycarbonyl-cyclohept-1-enyl)-phenyl]-benzamide] | 104 | –
34 | O=C(Nc1ccc(C2=C(CO)CCCCC2)cc1)c1c(F)cccc1F [Compound 36, 2,6-Difluoro-N-[4-(2-hydroxymethyl-cyclohept-1-enyl)-phenyl]-benzamide] | > 1000 | –
35 | O=CC1=C(c2ccc(NC(=O)c3c(F)cccc3F)cc2)CCCCC1 [Compound 37, 2,6-Difluoro-N-[4-(2-formyl-cyclohept-1-enyl)-phenyl]-benzamide] | 774 | –
36 | O=C(Nc1ccc(C2=C(c3cnco3)CCCCC2)cc1)c1c(F)cccc1F [Compound 38] | 23.1 | –
37 | CCOC(=O)C1=C(c2ccc(NC(=O)c3c(F)cccc3F)cc2)CCN(C(=O)OC)CC1 [Compound 39, 2,6-Difluoro-N-[4-(1-methoxycarboxyl-5-ethoxycarbonyl-2,3,6,7-tetrahydro-1H-azepin-4-yl)-phenyl]-benzamide] | 380 | –
38 | C=CC1=C(c2ccc(NC(=O)c3c(F)cccc3F)cc2)CCN(C(=O)OC)CC1 [Compound 40, 2,6-Difluoro-N-[4-(1-methoxycarbonyl-5-vinyl-2,3,6,7-tetrahydro-1H-azepin-4-yl)-phenyl]-benzamide] | 22.8 | –
39 | COC(=O)N1CCC(c2nccs2)=C(c2ccc(NC(=O)c3c(F)cccc3F)cc2)C1 [Compound 41, 2,6-Difluoro-N-[4-(1-methoxycarbonyl-4-thiazol-2-yl-1,2,5,6-tetrahydro-pyridin-3-yl)-phenyl]-benzamide] | 308 | –
40 | COC(=O)N1CCC(C(C)C)=C(c2ccc(NC(=O)c3c(F)cccc3F)cc2)C1 [Compound 42, 2,6-Difluoro-N-[4-(1-methoxycarbonyl-4-isopropyl-1,2,5,6-tetrahydro-pyridin-3-yl)-phenyl]-benzamide] | 11.9 | –
41 | CC1=C(c2ccc(NC(=O)c3c(F)cccc3F)cc2)CN(c2nccs2)CC1 [Compound 44, 2,6-Difluoro-N-[4-(1-thiazol-2-yl-4-methyl-1,2,5,6-tetrahydro-pyridin-3-yl)-phenyl]-benzamide] | 12 | –
42 | COC(=O)N1CCC(C)=C(c2ccc(NC(=O)c3ccncc3F)cc2)C1 [Compound 45, N-[4-(1-methoxycarbonyl-4-methyl-1,2,5,6-tetrahydro-pyridin-3-yl)-phenyl]-3-fluoro-isonicotinamide] | 248 | –

Source: US7816535B2, “Vinyl-phenyl derivatives for inflammation and immune-related uses” (Synta Pharmaceuticals Corp., priority 2006, dated 2010)
